Experimental findings from US7989459B2, “Purinones and 1H-imidazopyridinones as PKC-theta inhibitors” (Pharmacopeia, LLC, priority 2006, dated 2011) are described below.

One assay addresses PKC delta (Homo sapiens, UniProt Q05655). Description: Ki Pan Vera (PV) PKC delta. It is filed as biochemical.
Another assay addresses PKC alpha (Homo sapiens, UniProt P17252). The assay can be described thus: Ki Pan Vera (PV) PKC alpha. It is filed as biochemical. How it is done: [Worded in the source for another target; this target is reported under the same test.] (§1) For Ki Pan Vera (PV) of PKCθ, entries identified with “A” had values below 100 nM; entries identified with “B” had values below 1 μM.
Assay [1] deals with anti-CD3 induced interleukin-2 (IL-2) production. The assay can be described thus: anti-CD3 induced IL-2 production in mice. The assay is classed as in vivo. On the procedure: The compounds of the invention were also tested in vivo.
Another assay addresses PKCθ (Homo sapiens, UniProt Q04759). The assay can be described thus: Ki Pan Vera (PV) PKCθ. The assay is classed as biochemical. How it is done:
as §1

The target of a further assay is T1, SGK1 (Homo sapiens, UniProt O00141).
T1 sequence (O00141 1-431): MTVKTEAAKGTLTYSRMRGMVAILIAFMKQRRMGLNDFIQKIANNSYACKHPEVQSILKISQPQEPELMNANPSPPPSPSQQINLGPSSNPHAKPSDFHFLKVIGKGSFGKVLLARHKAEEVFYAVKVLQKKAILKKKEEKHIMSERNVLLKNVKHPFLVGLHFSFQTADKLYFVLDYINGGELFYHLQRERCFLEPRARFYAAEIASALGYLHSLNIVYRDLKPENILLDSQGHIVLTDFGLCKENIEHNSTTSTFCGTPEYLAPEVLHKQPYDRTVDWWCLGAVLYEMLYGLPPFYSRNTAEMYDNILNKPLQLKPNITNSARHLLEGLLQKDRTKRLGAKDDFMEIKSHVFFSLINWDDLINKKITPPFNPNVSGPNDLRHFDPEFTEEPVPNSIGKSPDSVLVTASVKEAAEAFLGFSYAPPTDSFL
Description: IC50 for kinase SGK (selectivity). The assay is classed as biochemical. How it is done:
Entries identified with “1” had values above 15 nM; entries identified with “2” had values above 100 nM; entries identified with “3” had values above 1 μM; entries identified with “4” had values above 10 μM. In Table 2, “nd” stands for “not determined.”

Chain of PKC delta (Q05655 whole entry): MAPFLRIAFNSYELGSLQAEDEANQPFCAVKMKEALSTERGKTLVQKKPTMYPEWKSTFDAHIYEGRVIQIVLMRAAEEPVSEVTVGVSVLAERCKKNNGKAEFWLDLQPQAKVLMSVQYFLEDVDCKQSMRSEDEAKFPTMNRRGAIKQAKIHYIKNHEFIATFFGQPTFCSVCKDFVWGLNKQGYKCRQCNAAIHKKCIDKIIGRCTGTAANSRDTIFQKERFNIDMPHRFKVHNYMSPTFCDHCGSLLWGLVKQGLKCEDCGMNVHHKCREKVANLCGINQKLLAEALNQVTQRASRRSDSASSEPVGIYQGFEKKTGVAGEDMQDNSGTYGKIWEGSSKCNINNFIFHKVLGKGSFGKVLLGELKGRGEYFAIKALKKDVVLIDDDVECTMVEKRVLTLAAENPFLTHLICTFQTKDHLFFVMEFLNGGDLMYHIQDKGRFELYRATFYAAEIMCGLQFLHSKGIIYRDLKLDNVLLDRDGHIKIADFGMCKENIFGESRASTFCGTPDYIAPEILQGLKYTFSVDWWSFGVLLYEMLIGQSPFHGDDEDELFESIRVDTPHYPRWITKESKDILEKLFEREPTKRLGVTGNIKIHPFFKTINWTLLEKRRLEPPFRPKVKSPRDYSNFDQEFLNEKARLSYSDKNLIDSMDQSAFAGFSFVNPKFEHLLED
Chain of PKCθ (Q04759 whole entry): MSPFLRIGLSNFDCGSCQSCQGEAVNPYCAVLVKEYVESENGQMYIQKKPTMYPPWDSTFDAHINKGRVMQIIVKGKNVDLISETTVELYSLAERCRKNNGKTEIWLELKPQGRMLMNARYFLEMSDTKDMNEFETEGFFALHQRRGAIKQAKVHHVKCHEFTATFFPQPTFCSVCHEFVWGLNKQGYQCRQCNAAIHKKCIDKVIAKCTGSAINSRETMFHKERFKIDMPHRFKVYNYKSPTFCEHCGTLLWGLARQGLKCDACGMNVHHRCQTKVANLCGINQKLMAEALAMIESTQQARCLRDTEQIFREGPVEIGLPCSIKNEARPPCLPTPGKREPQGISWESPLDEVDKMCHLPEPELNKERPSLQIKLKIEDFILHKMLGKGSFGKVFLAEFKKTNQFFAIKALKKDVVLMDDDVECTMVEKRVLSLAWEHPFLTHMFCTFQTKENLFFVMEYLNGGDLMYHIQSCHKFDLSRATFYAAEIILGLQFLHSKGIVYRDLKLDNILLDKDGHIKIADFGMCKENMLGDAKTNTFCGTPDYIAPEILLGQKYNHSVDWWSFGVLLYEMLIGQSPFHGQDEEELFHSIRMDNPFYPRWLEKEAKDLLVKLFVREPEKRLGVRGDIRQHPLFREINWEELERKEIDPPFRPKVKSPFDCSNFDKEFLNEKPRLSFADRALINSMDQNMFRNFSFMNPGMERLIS

Broadly, the Ki is the dissociation constant of the complex between target and ligand, obtained from inhibition or displacement. A higher Ki goes with weaker binding. `NCCCNc1ncc2[nH]c(=O)n(Cc3cc(Cl)ccc3Cl)c2n1` [Compound 115]: the inhibition constant Ki at PKC delta is above 100 nM; at PKC alpha it was above 1000 nM; on PKCθ, below 100 nM. In addition, the “% inhibition of IL-2 production” value in assay [1] (subcutaneous dose 30 mg/kg) is listed as 40%.

Consider `O=c1[nH]c2cnc(NC[C@@H]3CCNC3)nc2n1Cc1cccc(Cl)c1Cl` [Compound 107], for which the Ki at PKC delta was above 15 nM; at PKC alpha, above 1000 nM; on PKCθ it was below 100 nM. Also, the “% inhibition of IL-2 production” value in assay [1] (subcutaneous dose 30 mg/kg) stood at 45%.

Turning to `C=CC[C@@H]1/C=C(\C)C[C@H](C)C[C@H](OC)[C@H]2O[C@@](O)(C(=O)C(=O)N3CCCC[C@H]3C(=O)O[C@H](/C(C)=C/[C@@H]3CC[C@@H](O)[C@H](OC)C3)[C@H](C)[C@@H](O)CC1=O)[C@H](C)C[C@@H]2OC` [FK506, reference compound], the “% inhibition of IL-2 production” value in assay [1] (subcutaneous dose 1 mg/kg) was found to be 87%.

For the compound `O=c1[nH]c2cnc(NC[C@@H]3CCNC3)nc2n1Cc1c(Cl)cccc1Cl` [Compound 101], the values for the Ki on PKC delta, at PKC alpha and at PKCθ were above 15 nM, above 1000 nM and below 100 nM, respectively. Also, in assay [1] (subcutaneous dose 30 mg/kg), the “% inhibition of IL-2 production” value is on record as 39%.

Consider `NCCCNc1ncc2[nH]c(=O)n(Cc3c(Cl)cccc3Cl)c2n1` [Compound 120, 9-(2,6-dichlorobenzyl)-2-(3-aminopropylamino)-7H-purin-8(9H)-one], for which the inhibition constant Ki on PKC delta was above 100 nM; on PKC alpha it was above 10000 nM; on PKCθ, below 100 nM. The “% inhibition of IL-2 production” value in assay [1] (subcutaneous dose 30 mg/kg) turned out to be 40%. For the same compound, the “IC50-SGK1 (nM)” value against SGK1 is on record as “Inactive”.

In general, IC50 refers to the midpoint of a concentration-inhibition curve. For the compound `O=c1[nH]c2ccc(NC[C@@H]3CCNC3)nc2n1Cc1c(Cl)cccc1Cl` [Compound 147, (R)-3-(2,6-Dichlorobenzyl)-5-(pyrrolidin-3-ylmethylamino)-1H-imidazo[4,5-b]pyridin-2(3H)-one], the inhibition constant Ki on PKC delta was above 15 nM; on PKC alpha, above 1000 nM; at PKCθ it was below 100 nM. This compound displayed an IC50 on SGK1 above 10000 nM.

Consider `O=c1[nH]c2cnc(NCC3CCNC3)nc2n1Cc1c(Cl)cccc1Cl` (centres unmarked) [Compound 108], for which the Ki is above 15 nM on PKC delta, above 1000 nM at PKC alpha and below 100 nM on PKCθ. Further, the half-inhibitory concentration (IC50) on SGK1 was above 10000 nM.

For the compound `NCCCNc1ncc2[nH]c(=O)n(Cc3cc(F)ccc3C(F)(F)F)c2n1` [Compound 133], the Ki on PKC delta was above 100 nM; on PKC alpha it was above 10000 nM; on PKCθ, below 100 nM. The 50% inhibitory concentration (IC50) at SGK1 is above 1000 nM.

For the compound `O=c1[nH]c2cnc(NCC3CCNC3)nc2n1Cc1c(F)cccc1Cl` (centres unmarked) [Compound 106], the Ki was above 15 nM on PKC delta, above 1000 nM at PKC alpha and below 100 nM at PKCθ. This compound displayed a concentration for half-maximal inhibition (IC50) at SGK1 above 10000 nM.

Regarding `O=c1[nH]c2cnc(NCC3CCNC3)nc2n1Cc1ccccc1Cl` (centres unmarked) [Compound 113], the Ki was above 15 nM at PKC delta, above 1000 nM on PKC alpha and below 100 nM at PKCθ. For the same compound, the IC50 on SGK1 is above 10000 nM.
